Test results as given in patent US20130251782A1, “TOPICAL APPLICATION OF INGENOL MEBUTATE WITH OCCLUSION” (LEO LABORATORIES LIMITED, priority 2012, published 2013).
Like-named read-outs stand apart in the source and are kept apart here.

Key:
[1] = In vitro skin permeation and penetration of PEP005, flow through diffusion cells; assay type: in vitro ADME, pig
Excerpt: The in vitro skin permeation and penetration of PEP005 was investigated with various types of occlusion dressings, using flow through diffusion cells. Dressings were applied immediately (without formulation drying), as well as after the formulation had dried. Additionally, PEP005 might also be absorbed into the occlusion dressing, which also was investigated.
Methods: The in vitro permeation and penetration of PEP005 into pig ear skin was studied using PermeGear® flow through diffusion cells (n=6 per formulation). The skin diffusion experiment was allowed to proceed for 21 hours into a recipient phase consisting of 0.04 M isotonic phosphate buffer pH 7.4. Samples from the different skin layers and recipient phase were collected in order to determine flux and skin distribution of PEP005. The samples were analysed by LC-MS/MS.
The test formulation used is an aqueous based gel formulation containing; PEP005 0.5 mg/g, Benzyl Alcohol 9 mg/g, Isopropanol 300 mg/g, Citric acid 5.4 mg/g, Sodium Citrate dihydrate 1.4 mg/g, Hydroxyethyl Cellulose 15 mg/g and water up to 1 g, with a formulation pH of 3.2.
Full thickness skin from pig ears was used in the study. The ears were kept frozen at −18° C. until use. Before the experiment, the ears were placed in a refrigerator (2-8° C.) for slow defrosting. The hairs were removed using a veterinary hair trimmer. The skin was cleaned for subdermal fat using a scalpel, and two pieces of skin were cut from each ear. The pieces of skin were refrozen and kept for no longer than 4 weeks. […]
The used PermeGear® automated system incorporate nine flow through diffusion cells (1-9) made of clear glass, in which the donor and receptor chambers were separated by a diffusion membrane and held together by a pinch clamp. […] The specific volume was measured and registered for each cell. […]
Prior to application of the formulation, the experiment was started by starting the pump. […] The formulation was applied using a glass spatula and the residual amount of formulation was determined, thus giving the actual amount of formulation applied to the skin. […]

[2] = cited from earlier work
[3] = tested on: sBCC lesion on the trunk or extremities; assay type: in vivo
Excerpt: The primary objective of the clinical trial was to evaluate the safety of PEP005 Gel, 0.05% when administered for up to 3 consecutive days application (Day 1, 2 and 3), to a sBCC lesion on the trunk and extremities.
Another objective of the clinical trial was to evaluate the efficacy of PEP005 Gel, 0.05% when administered for up to 3 consecutive days application (Day 1, 2 and 3), to a sBCC lesion on the trunk and extremities.
This was a phase 2, multi-centre, parallel group, open-label trial to evaluate the safety and efficacy of PEP005 (ingenol mebutate) Gel, 0.05%, when administered for up to 3 consecutive days (Day 1, 2 and 3) to a sBCC lesion on the trunk or extremities.
The trial population was planned to include 75 subjects aged at least 18 years with a primary diagnosed and histologically confirmed sBCC located on the trunk or extremities which was suitable for excision.
Eligible subjects were randomised to receive physician-applied trial medication in one of the following 3 treatment groups:
Group 1) PEP005 Gel, 0.05%, up to 3 consecutive days treatment, occluded with an aluminium disk;
Group 2) PEP005 Gel, 0.05%, up to 3 consecutive days treatment, occluded with an Opsite™ disk;
Group 3) PEP005 Gel, 0.05%, up to 3 consecutive days treatment, not occluded.
Eligible subjects received PEP005 Gel on Days 1, 2 and 3. […] If tolerability to trial medication was maintained, the subjects received all 3 doses of PEP005 Gel, 0.05%, regardless of whether the sBCC lesion being treated was resolved or not.
Subsequent follow-up visits for safety assessments were made on Days 2, 3 (as applicable), 4 (as applicable), 8, 15, 29, 57, 85 and 120. Histological and clinical efficacy assessments were only conducted at Day 120. If trial medication was not administered on Day 2 a follow-up visit on Day 3 or 4 was not necessary, unless clinically indicated. If trial medication was not administered on Day 3 a follow-up visit on Day 4 was not necessary, unless clinically indicated.
The volume of PEP005 Gel applied to the selected treatment area was 30 μl for lesions with the longest axes of between 4-10 mm and 50 μl for lesions with the longest axes of between 11-15 mm.
The actual treatment analysis set included the same subjects as in the full analysis set, i.e. 75 randomised subjects. However, 2 subjects who received the wrong treatment were assigned to their actual treatment group, i.e. PEP005 Aluminium Disk.
Thus, in the actual treatment analysis set 27 subjects were included in PEP005 Aluminium Disk group and 24 subjects both in PEP005 Opsite™ Disk group and PEP005 No Occlusion group.

C/C=C(/C)C(=O)O[C@H]1C(C)=C[C@]23C(=O)[C@@H](C=C(CO)[C@@H](O)[C@]12O)[C@H]1[C@@H](C[C@H]3C)C1(C)C [PEP005, 2-methyl-2(Z)-butenoic acid (1aR,2S,5R,5aS,6S,8aS,9R,10aR)-5,5a-dihydroxy-4-(hydroxymethyl)-1,1,7,9-tetramethyl-11-oxo-1a,2,5,5a,6,9,10,10a-octahydro-1H-2,8a-methanocyclopenta[a]cyclopropa[e]cyclodecen-6-yl ester]
Increase in penetrated amount of PEP005 after occlusion compared to the non-occluded treatment ([1]; Study PMPN1028, all dressings): 2-6 fold | Increase in permeation of PEP005 compared to the non-occluded treatment ([1]; aluminium foil, parafilm, Coloplast vinyl film and Compeed, Study PMPN1028): 9-10 fold | Increase in skin permeation compared to the non-occluded treatment ([1]; semi-occlusive dressing Flexifix, Study PMPN1028): 3 fold | Stability in alcohols ([2]; alcohols such as benzyl alcohol and isopropyl alcohol): good stability | Stability at low pH ([2]; low pH): good stability | Number of subjects who received 1 dose (dosing continued only if tolerated) ([3]; Aluminium Disk group (n = 27)): 22 | Number of subjects who received 2 doses (dosing continued only if tolerated) ([3]; Aluminium Disk group (n = 27)): 2 | Number of subjects who received 3 doses (dosing continued only if tolerated) ([3]; Aluminium Disk group (n = 27)): 13 | Subjects who received 1 dose (dosing continued only if tolerated) ([3]; Aluminium Disk group (n = 27)): 81.5% | Subjects who received 2 doses (dosing continued only if tolerated) ([3]; Aluminium Disk group (n = 27)): 7.4% | Subjects who received 3 doses (dosing continued only if tolerated) ([3]; Aluminium Disk group (n = 27)): 11.1% | Number of subjects who received 1 dose (dosing continued only if tolerated) ([3]; No Occlusion group (n = 24)): 0 | Number of subjects who received 2 doses (dosing continued only if tolerated) ([3]; No Occlusion group (n = 24)): 1 | Number of subjects who received 3 doses (dosing continued only if tolerated) ([3]; No Occlusion group (n = 24)): 23 | Subjects who received 1 dose (dosing continued only if tolerated) ([3]; No Occlusion group (n = 24)): 0.0% | Subjects who received 2 doses (dosing continued only if tolerated) ([3]; No Occlusion group (n = 24)): 4.2% | Subjects who received 3 doses (dosing continued only if tolerated) ([3]; No Occlusion group (n = 24)): 95.8% | Number of subjects who received 1 dose (dosing continued only if tolerated) ([3]; OpSite Disk group (n = 24)): 0 | Number of subjects who received 2 doses (dosing continued only if tolerated) ([3]; OpSite Disk group (n = 24)): 5 | Number of subjects who received 3 doses (dosing continued only if tolerated) ([3]; OpSite Disk group (n = 24)): 19 | Subjects who received 1 dose (dosing continued only if tolerated) ([3]; OpSite Disk group (n = 24)): 0.0% | Subjects who received 2 doses (dosing continued only if tolerated) ([3]; OpSite Disk group (n = 24)): 20.8% | Subjects who received 3 doses (dosing continued only if tolerated) ([3]; OpSite Disk group (n = 24)): 79.2%
